Results on nine compounds are retold here after patent US20110086759A1, “CHEMICAL COMPOUNDS” (SYNGENTA CROP PROTECTION, INC., priority 2007, published 2011).

Holding throughout (format): in vivo
The test system of assay [1] is Echinochloa crus-galli (ECHCG). The assay is described as follows: Pre-emergence biological efficacy, glasshouse pot test. Conditions: 312 h, pre-emergence, 1,000 g/ha, evaluated after 13 days (100=total damage; 0=no damage), read-out: Percentage damage ECHCG. A digest of the protocol: (§1)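 Damage was rated on a 0–100 scale 13 days after treatment, with plants kept at 24/16° C, 14 h light and 65% humidity. The pre-emergence spray, at 1000 or 250 g/ha in acetone/water 50:50 with 0.5% Tween 20, was applied one day after sowing.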

In assay [2] the test system is Setaria faberi (SETFA). The assay is described as above. Conditions: 312 h, pre-emergence, 1,000 g/ha, evaluated after 13 days (100=total damage; 0=no damage), read-out: Percentage damage SETFA. A digest of the protocol: as §1
For assay [3], the system named is Alopecurus myosuroides (ALOMY). The description is as above. Conditions: 312 h, pre-emergence, 1,000 g/ha, evaluated after 13 days (100=total damage; 0=no damage), read-out: Percentage damage ALOMY. A digest of the protocol: as §1
Assay [4] concerns Amaranthus retoflexus (AMARE). The description is as above. Conditions: Amaranthus retroflexus, 312 h; pre-emergence, 1,000 g/ha, evaluated after 13 days (100=total damage; 0=no damage); read-out: Percentage damage AMARE. A digest of the protocol: as §1
In assay [5] the test system is Solanum nigrum (SOLNI). The description is as above. Particulars: 312 h, pre-emergence, 1,000 g/ha, evaluated after 13 days (100=total damage; 0=no damage), read-out: Percentage damage SOLNI. A digest of the protocol: as §1
Assay [6] relates to Ipomea hederaceae (IPOHE). The assay is described as above. Conditions: Ipomoea hederacea, 312 h; pre-emergence, 1,000 g/ha, evaluated after 13 days (100=total damage; 0=no damage); read-out: Percentage damage IPOHE. In a few lines: as §1
The subject of assay [7] is Echinochloa crus-galli (ECHCG). The assay is described as follows: Post-emergence biological efficacy, glasshouse pot test. Particulars: 312 h, post-emergence, 1,000 g/ha, evaluated after 13 days (100=total damage; 0=no damage), read-out: Percentage damage caused to weed species, ECHCG. In a few lines:
(§2)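 Scored 13 days after spraying on a 0 (no damage) to 100 (total damage) scale. Treatment was a post-emergence spray at 1000 or 250 g/ha, from acetone/water 50:50 plus 0.5% Tween 20, onto 8-day-old plants in soil pots. Growth at 24/16° C, 14 h photoperiod, 65% humidity, watered twice daily.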

The subject of assay [8] is Setaria faberi (SETFA). Described as above. Particulars: 312 h, post-emergence, 1,000 g/ha, evaluated after 13 days (100=total damage; 0=no damage), read-out: Percentage damage caused to weed species, SETFA. In a few lines: as §2
The test system of assay [9] is Alopecurus myosuroides (ALOMY). The description is as above. Conditions: 312 h, post-emergence, 1,000 g/ha, evaluated after 13 days (100=total damage; 0=no damage), read-out: Percentage damage caused to weed species, ALOMY. A digest of the protocol:
as §2

The test system of assay [10] is Amaranthus retoflexus (AMARE). Described as above. Conditions: Amaranthus retroflexus, 312 h; post-emergence, 1,000 g/ha, evaluated after 13 days (100=total damage; 0=no damage); read-out: Percentage damage caused to weed species, AMARE. In a few lines:
as §2

In assay [11] the test system is Solanum nigrum (SOLNI). Described as above. Conditions: 312 h, post-emergence, 1,000 g/ha, evaluated after 13 days (100=total damage; 0=no damage), read-out: Percentage damage caused to weed species, SOLNI. A digest of the protocol: as §2
Assay [12] concerns Ipomea hederaceae (IPOHE). The assay is described as above. Conditions: Ipomoea hederacea, 312 h; post-emergence, 1,000 g/ha, evaluated after 13 days (100=total damage; 0=no damage); read-out: Percentage damage caused to weed species, IPOHE. In a few lines: as §2

As to `COC(=O)c1nc(C2CC2)nc(NCCCc2cccnc2)c1Cl` [Compound 4-251, 5-Chloro-2-cyclopropyl-6-methoxycarbonyl-4-[3-(pyrid-3-yl)propylamino]-pyrimidine], the pest or weed control at 1000 g/ha in assay [1] worked out at 0%; in assay [2] it was 0%; in [3], 0%; in assay [4], 40%; in assay [5] it was 20%; in [6], 20%. Besides, the pest or weed control at 1000 g/ha in [7] came to 40%; in assay [8] it was 50%; in [9], 10%; in assay [10] it was 100%; in [11], 80%; in [12] it was 50%.
In the case of `COC(=O)c1nc(C2CC2)nc(NC(C)CCc2ccccc2)c1Cl` (stereo not drawn) [Compound 4-252, 5-Chloro-2-cyclopropyl-6-methoxycarbonyl-4-(3-phenyl-1-methyl-propylamino)-pyrimidine], the pest or weed control at 1000 g/ha in assay [1] amounted to 0%; in assay [2], 0%; in assay [3] it was 0%; in [4] it was 20%; in assay [5] it was 0%; in [6], 0%. The pest or weed control at 1000 g/ha worked out at 0% in [7]; 30% in assay [8]; 10% in assay [9]; 100% in [10]; 60% in assay [11]; 60% in assay [12].
As for `COC(=O)c1nc(C2CC2)nc(NCCCCc2ccccc2)c1Cl` [Compound 4-253, 5-Chloro-2-cyclopropyl-6-methoxycarbonyl-4-(4-phenylbutyl-amino)pyrimidine], the pest or weed control at 1000 g/ha in assay [1] is 20%; in assay [2], 30%; in [3], 10%; in [4], 50%; in [5] it was 80%; in assay [6] it was 100%. For the same compound, the pest or weed control at 1000 g/ha in assay [7] came to 40%; in assay [8] it was 50%; in assay [9] it was 10%; in assay [10], 100%; in assay [11] it was 100%; in assay [12], 70%.
Consider `COC(=O)c1nc(C2CC2)nc(NCC(O)c2ccccc2)c1Cl` (stereo not drawn) [Compound 4-257, 5-Chloro-2-cyclopropyl-4-(2-hydroxy-2-phenyl-ethylamino)-6-methoxycarbonyl-pyrimidine], for which the pest or weed control at 1000 g/ha stood at 60% in [1]; 80% in assay [2]; 40% in [3]; 100% in assay [4]; 90% in assay [5]; 100% in assay [6]. The pest or weed control at 1000 g/ha came to 70% in [7]; 80% in [8]; 60% in [9]; 100% in assay [10]; 90% in assay [11]; 100% in assay [12].
Turning to `COC(=O)c1nc(C2CC2)nc(NCC(O)c2cccc(O)c2)c1Cl` (stereo not drawn) [Compound 4-258, 5-Chloro-2-cyclopropyl-4-[2-hydroxy-2-(3-hydroxyphenyl)-ethylamino]-6-methoxycarbonyl-pyrimidine], the pest or weed control at 1000 g/ha in assay [1] was 30%; in [2] it was 40%; in assay [3] it was 30%; in [4], 100%; in [5], 100%; in assay [6], 100%. The pest or weed control at 1000 g/ha is 60% in assay [7]; 70% in [8]; 30% in assay [9]; 100% in assay [10]; 80% in assay [11]; 90% in assay [12].
Turning to `COC(=O)c1nc(C2CC2)nc(NCC(O)c2ccc(O)cc2)c1Cl` (stereo not drawn) [Compound 4-259, 5-Chloro-2-cyclopropyl-4-[2-hydroxy-2-(4-hydroxyphenyl)-ethylamino]-6-methoxycarbonyl-pyrimidine], the pest or weed control at 1000 g/ha came out at 30% in assay [1]; 30% in assay [2]; 10% in assay [3]; 100% in assay [4]; 90% in assay [5]; 100% in assay [6]. In addition, the pest or weed control at 1000 g/ha came to 30% in assay [7]; 80% in [8]; 20% in [9]; 100% in assay [10]; 80% in assay [11]; 70% in assay [12].
`COC(=O)c1nc(C2CC2)nc(NCCNc2ccccc2)c1Cl` [Compound 4-260, 5-Chloro-2-cyclopropyl-6-methoxycarbonyl-4-[2-(phenylamino)-ethylamino)-pyrimidine]: the pest or weed control at 1000 g/ha in assay [1] was 20%; in assay [2] it was 20%; in assay [3], 10%; in assay [4], 100%; in assay [5], 90%; in [6], 90%. Moreover, the pest or weed control at 1000 g/ha in assay [7] amounted to 40%; in assay [8], 60%; in assay [9] it was 20%; in [10], 100%; in [11], 80%; in assay [12], 100%.
Regarding `COC(=O)c1nc(C2CC2)nc(NCCSCc2ccccc2)c1Cl` [Compound 4-262, 5-Chloro-2-cyclopropyl-6-methoxycarbonyl-4-[2-(phenylmethyl-thio)ethylamino]-pyrimidine], the pest or weed control at 1000 g/ha stood at 0% in assay [1]; 0% in [2]; 0% in [3]; 40% in assay [4]; 10% in assay [5]; 50% in assay [6]. The pest or weed control at 1000 g/ha in assay [7] is 10%; in [8] it was 30%; in assay [9] it was 10%; in [10] it was 80%; in [11], 60%; in assay [12], 60%.
Take `COC(=O)c1nc(C2CC2)nc(NCCSCc2c(Cl)cccc2Cl)c1Cl` [Compound 4-263, 5-Chloro-2-cyclopropyl-4-{2-[(2,6-dichloro-phenyl)methylthio]-ethylamino}-6-methoxycarbonyl-pyrimidine]: the pest or weed control at 1000 g/ha in assay [1] worked out at 0%; in [2] it was 0%; in assay [3] it was 0%; in assay [4], 30%; in [5], 10%; in assay [6] it was 30%. In addition, the pest or weed control at 1000 g/ha in [7] stood at 0%; in assay [8], 30%; in [9], 0%; in assay [10] it was 90%; in assay [11] it was 60%; in [12], 50%.
